US20080280815A1, “Lowering Serum Lipids” (Novo Nordisk A/S, priority 2000, published 2008)

Experiments:
[1] = test system: male Zucker Diabetic Fatty fa/fa (ZDF) rat; assay: Long-term treatment of male Zucker Diabetic Fatty fa/fa (ZDF) rats, model of Type 2 diabetes; type: in vivo; settings: for Free fatty acids / Total cholesterol: mean ± SEM
Text: The male Zucker Diabetic Fatty fa/fa (ZDF) rat is a model of Type 2 diabetes. The rats are insulin resistant but normoglycemic from birth and they develop diabetes from about week 7 to week 10 of age. During the transitional period, the animals go through a state of impaired glucose tolerance. Although the animals are hyperinsulinemic before diabetes onset and during the early stages of diabetes, they later lose glucose-stimulated insulin secretion and finally become almost completely insulinopenic.
Animals were between 7 and 8 weeks old when dosing was initiated, and fed glucose levels were not different between the groups before dosing began. […] After 36 days of dosing, an oral glucose tolerance test was performed in the animals after an 11-hour fast. One g/kg of glucose was administered by oral gavage and subsequent measurements of blood glucose and plasma insulin were made.
In addition to the effects on blood glucose and insulin, we also studied the effects of long-term treatment on lipid parameters. Thus, at the termination of the study, non-fasted plasma measurements of total cholesterol, free fatty acids were performed.

[2] = test system: Wistar rats subjected to neonatal monosodium glutamate treatment (MSG); assay: Acute and subchronic anorectic effects, model of hypothalamic obesity (MSG rats); type: in vivo, rat
Description: Solutions were always made fresh approximately 1 hour prior to use and stored at 4° C. in sterile tubes.

normal Wistar rats = assay: Acute and subchronic anorectic effects, normal Wistar rats; type: in vivo, rat; settings: lowered from 1.58±0.1, 100 μg/kg s.c. twice daily
[3] = 150 μg/kg s.c. bi-daily, non-fasted plasma at termination
[4] = group B, 30 μg/kg s.c. bi-daily, non-fasted plasma at termination
[5] = group C, 150 μg/kg s.c. bi-daily, non-fasted plasma at termination
[6] = 100 μg/kg s.c. twice daily, normal and MSG rats not distinguished
[7] = initial effect, normalised within few days of treatment

## Arg^34, Lys^26(N^ε-(γ-Glu(N^α-hexadecanoyl)))-GLP-1(7-37) [GLP1]
[1]; [3]
  free fatty acids, group C compared to group A (vehicle): significant reduction
  total cholesterol, group C compared to group A (vehicle): significant reduction
[1]; group B, 30 μg/kg s.c. bi-daily, after 10 days of dosing
  blood glucose state during a normal 24-hour feeding schedule: hyperglycemic
[1]; [4]
  Free fatty acids: 0.29 ± 0.04 mM
  Total cholesterol: 2.9 ± 0.1 mM
[1]; group C, 150 μg/kg s.c. bi-daily, after 10 days of dosing
  blood glucose levels during a normal 24-hour feeding schedule vs vehicle- and low-dose-treated animals: significantly lower
[1]; group C, 150 μg/kg s.c. bi-daily, after 10 days of dosing, compared to initial measurements
  blood glucose levels during a normal 24-hour feeding schedule: unchanged
[1]; group C, 150 μg/kg s.c. bi-daily, after 36 days of dosing, 11-hour fast, 1 g/kg glucose by oral gavage
  glycemic level in oral glucose tolerance test vs groups A and B: significantly lower
[1]; [5]
  Free fatty acids: 0.20 ± 0.02 mM
  Total cholesterol: 2.2 ± 0.1 mM
[2]; [6]
  body weight: reduced
  food intake: inhibition
[2]; [7]
  diuresis: increases
  water intake: Initial decreases
[2]; throughout the experiment
  plasma parameters of renal function: remained normal
Normal Wistar rats
  plasma levels of triglycerides: 1.21 ± 0.3 mM
